The values that follow are results of earlier work, collected in patent publication US20130252334A1, “METHOD OF USING TET-INDUCIBLE TRANSGENES” (UNIVERSITY OF ROCHESTER, priority 2010, published 2013).

One series has as its system rtTA. The settings on record: compared to Dox; Zhu et al. 2007; cited from earlier work.
Another series addresses tet repressor (Escherichia coli, UniProt P04483). Particulars: relative to tetracycline; Zhu et al. 2007; cited from earlier work.
The conditions of series [1]: versus other related compounds; cited from earlier work.

Sequence of tet repressor (P04483 whole entry): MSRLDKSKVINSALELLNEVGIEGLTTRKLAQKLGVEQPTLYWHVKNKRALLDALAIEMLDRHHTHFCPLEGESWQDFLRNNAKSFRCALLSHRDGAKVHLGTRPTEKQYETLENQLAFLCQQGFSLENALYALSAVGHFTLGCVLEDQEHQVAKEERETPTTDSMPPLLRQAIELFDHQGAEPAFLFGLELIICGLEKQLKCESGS

Consider `C[C@H]1c2ccc(C(C)(C)C)c(O)c2C(O)=C2C(=O)[C@]3(O)C(O)=C(C(N)=O)C(=O)[C@@H](N(C)C)[C@@H]3[C@@H](O)[C@@H]21` [9-TB, 9-t-butyl doxycycline], for which, in the series on rtTA, the “potency in activating transcription from the rtTA” value was 10 times. Further, the “binding affinity on the tet repressor, fold higher” value at tet repressor is reported as 10 fold. Besides, in series [1], the hydrophobicity/lipophilicity entry was “much more hydrophobic/lipophylic than other related compounds”.
